In ChEMBL document CHEMBL5233283, “Indole derivatives as tubulin polymerization inhibitors for the development of promising anticancer agents” (Bioorg Med Chem, 2021):

Tests used:
MKN-45 = assay: Cytotoxicity against human MKN-45 cells assessed as cell growth inhibition; type: functional, cell-based
KB = assay: Cytotoxicity against human KB cells assessed as cell growth inhibition; type: functional, cell-based
HT-29 = assay: Cytotoxicity against human HT-29 cells assessed as inhibition of cell growth; type: functional, cell-based
NCI-H460 = assay: Cytotoxicity against human NCI-H460 cells assessed as cell growth inhibition; type: functional, cell-based
MDA-MB-231 = assay: Cytotoxicity against human MDA-MB-231 cells assessed as inhibition of cell growth; type: functional, cell-based
MCF7 = assay: Cytotoxicity against human MCF7 cells assessed as inhibition of cell growth; type: functional, cell-based
A549 = assay: cells; conditions: Homo sapiens
Description: Cytotoxicity against human A549 cells assessed as inhibition of cell growth

HeLa = assay: Cytotoxicity against human HeLa cells assessed as inhibition of cell growth; type: functional, cell-based
HepG2 = assay: Cytotoxicity against human HepG2 cells assessed as inhibition of cell growth; type: functional, cell-based
[1] = Cytotoxicity against human […] cells assessed as inhibition of cell growth; type: functional, cell-based
HCT-116 = assay: Cytotoxicity against human HCT-116 cells assessed as inhibition of cell growth; type: functional, cell-based
Ishikawa = assay: Cytotoxicity against human Ishikawa cells assessed as inhibition of cell growth; type: functional, cell-based
AGS = assay: Cytotoxicity against human AGS cells assessed as inhibition of cell growth; type: functional, cell-based
NCI/ADR-RES = assay: Cytotoxicity against human NCI-ADR-RES cells assessed as inhibition of cell growth; type: functional, cell-based
[2] = Cytotoxicity against human CL1-5 cells assessed as inhibition of cell growth; type: functional, cell-based
PC-3 = assay: Cytotoxicity against human PC-3 cells assessed as inhibition of cell growth; type: functional, cell-based
SH-SY5Y = assay: Cytotoxicity against human SH-SY5Y cells assessed as cell growth inhibition; type: functional, cell-based
[3] = Cytotoxicity against human Neural progenitor cells assessed as cell growth inhibition; type: functional, cell-based
[4] = Cytotoxicity against human SCC-29B cells assessed as inhibition of cell growth; type: functional
B16-F10 = assay: Cytotoxicity against mouse B16-F10 cells assessed as cell growth inhibition; type: functional, cell-based
PA-1 = assay: Cytotoxicity against human PA-1 cells assessed as inhibition of cell growth; type: functional, cell-based
RKO = assay: Cytotoxicity against human RKO cells assessed as inhibition of cell growth; type: functional, cell-based

Q: For `COc1ccc(-n2ccc3cc(OC)c(OC)c(OC)c32)cc1O`, which IC50 (MKN-45) is on record?
A: 11.1 nM

Q: And the IC50 (KB)?
A: 13.7 nM

Q: What about the IC50 (HT-29) of the same molecule?
A: 10.2 nM

Q: What about the IC50 (NCI-H460) of the same molecule?
A: 12.9 nM

Q: With `O=C1Nc2cc(Cl)ccc2/C1=C\c1c(-c2ccc(F)cc2)nc2ccccn12` as the molecule, how does the GI50 (MDA-MB-231) read?
A: 950 nM

Q: What about the GI50 (MCF7) of the same molecule?
A: 430 nM

Q: Which IC50 (MKN-45) does the source give for `N#Cc1c(-c2ccc(F)cc2Cl)cc(-c2c[nH]c3ccccc23)n2ccnc12` here?
A: 140 nM

Q: And the IC50 (HT-29)?
A: 20 nM

Q: What about the IC50 (A549) of the same molecule?
A: 570 nM

Q: And the IC50 (NCI-H460)?
A: 50 nM

Q: For `O=C(N/N=C/c1ccc(C(F)(F)F)cc1)c1[nH]c2ccc(Cl)cc2c1-c1ccccc1`, which IC50 (MCF7) is on record?
A: 420 nM

Q: With `COc1cc(C2=CN(C(N)=O)C(c3cn(C)c4ccc(Br)cc34)C2)cc(OC)c1OC` (stereo unspecified) as the molecule, how does the IC50 (HeLa) read?
A: 210 nM

Q: And the IC50 (A549)?
A: 260 nM

Q: What about the IC50 (HepG2) of the same molecule?
A: 310 nM

Q: What about the IC50 (MCF7) of the same molecule?
A: 290 nM

Q: Which IC50 [1] does the source give for `COc1cc(/C=N/NC(=O)c2cn(Cc3ccccc3)c3ccccc23)cc(OC)c1OC` here?
A: 35.6 µM

Q: And the IC50 (A549)?
A: 80 nM

Q: What about the IC50 (HepG2) of the same molecule?
A: 630 nM

Q: And the IC50 (MCF7)?
A: 640 nM

Q: For `COc1cc(/C=C/c2ncc([N+](=O)[O-])n2CCOC(=O)c2c[nH]c3ccccc23)cc(OC)c1OC`, which IC50 (A549) is on record?
A: 35 nM

Q: And the IC50 (HepG2)?
A: 40 nM

Q: What about the IC50 (MCF7) of the same molecule?
A: 30 nM

Q: Which IC50 (MCF7) does the source give for `Oc1cccc(-n2cc(CSc3c[nH]c4ccccc34)nn2)c1` here?
A: 2370 nM

Q: What does the source list for `COc1ccc(C(=O)/C=C/c2ccc3c(ccn3C)c2)c2ccccc12`?
A: IC50 (HCT-116): 1130 nM; IC50 (HepG2): 650 nM; IC50 (MCF7): 820 nM

Q: With `COC(=O)c1[nH]c2cc(OC)ccc2c1/C=C/C(=O)c1cc(OC)c(OC)c(OC)c1` as the molecule, how does the IC50 (HeLa) read?
A: 370 nM

Q: And the IC50 (HT-29)?
A: 160 nM

Q: And the IC50 (MCF7)?
A: 170 nM

Q: Which results are given for `COC(=O)c1c(Nc2cc(OC)c(OC)c(OC)c2)c2ccc(OC)cc2n1C`?
A: IC50 (HeLa): 110 nM; IC50 (HT-29): 110 nM; IC50 (MCF7): 110 nM

Q: Which IC50 (HeLa) does the source give for `O=C(CC#Cc1ccccc1)Oc1ccc2[nH]ccc2c1` here?
A: 3200 nM

Q: What about the IC50 (Ishikawa) of the same molecule?
A: 10.1 µM

Q: What about the IC50 (MDA-MB-231) of the same molecule?
A: 9.9 µM

Q: And the IC50 (MCF7)?
A: 3800 nM

Q: Which IC50 (HeLa) does the source give for `COc1ccc(S(=O)(=O)Nc2cccc3cc(-c4ccccc4)[nH]c23)cc1` here?
A: 200 nM

Q: And the IC50 (HT-29)?
A: 130 nM

Q: What about the IC50 (AGS) of the same molecule?
A: 250 nM

Q: What about the IC50 (NCI/ADR-RES) of the same molecule?
A: 150 nM

Q: And the IC50 (A549)?
A: 1430 nM

Q: And the IC50 [2]?
A: 450 nM

Q: What about the IC50 (PC-3) of the same molecule?
A: 110 nM

Q: With `COC(=O)c1[nH]c2ccc(OC)cc2c1Nc1cc(OC)c(OC)c(OC)c1` as the molecule, how does the IC50 (HeLa) read?
A: 110 nM

Q: What about the IC50 (HT-29) of the same molecule?
A: 110 nM

Q: What about the IC50 (MCF7) of the same molecule?
A: 110 nM

Q: Which IC50 (A549) does the source give for `CC(=O)c1ccc(C2=C(c3c(C)[nH]c4ccccc34)C(=O)N(C)C2=O)cc1` here?
A: 4970 nM

Q: And the IC50 (SH-SY5Y)?
A: 8.48 µM

Q: What about the IC50 [3] of the same molecule?
A: 1310 nM

Q: Which IC50 (MCF7) does the source give for `O=C(O)c1cccc(-n2cc(CSc3c[nH]c4ccccc34)nn2)c1` here?
A: 3520 nM

Q: Which GI50 [4] does the source give for `COc1ccc(C(=O)/C=C/c2cn(C)c3ccc(C(=O)c4cc(OC)c(OC)c(OC)c4)cc23)cc1OC` here?
A: 960 nM

Q: With `O=C(CC(c1ccc(F)cc1)c1c(-c2ccccc2)[nH]c2ccccc12)c1ccccc1` (stereo unspecified) as the molecule, how does the IC50 (B16-F10) read?
A: 10 µM

Q: And the IC50 (MCF7)?
A: 10000 nM

Q: Which IC50 (MCF7) does the source give for `N#Cc1ccc(/C=N/NC(=O)c2[nH]c3ccc(Cl)cc3c2-c2ccccc2)cc1` here?
A: 170 nM

Q: What does the source list for `COc1cc(CSc2nnc(-c3cn(C)c4ccccc34)n2-c2ccccc2)cc(OC)c1OC`?
A: IC50 (HeLa): 150 nM; IC50 (A549): 300 nM; IC50 (HepG2): 300 nM; IC50 (MCF7): 380 nM

Q: What does the source list for `O=C(N/N=C/c1c[nH]c2ccccc12)c1c[nH]c2ccccc12`?
A: IC50 (HeLa): 1500 nM; IC50 (MDA-MB-231): 8 µM; IC50 (HepG2): 29700 nM; IC50 (MCF7): 5250 nM; IC50 (PA-1): 24.7 µM

Q: Which IC50 (B16-F10) does the source give for `O=C(CC(c1ccccc1)c1c(-c2ccccc2)[nH]c2ccccc12)c1ccc(F)cc1` (stereo unspecified) here?
A: 10 µM

Q: And the IC50 (MCF7)?
A: 10000 nM

Q: What does the source list for `COc1cc(C(=O)c2cccc3[nH]ccc23)cc([Se]C)c1OC`?
A: IC50 (HeLa): 4 nM; IC50 (A549): 4 nM; IC50 (HCT-116): 4 nM; IC50 (MDA-MB-231): 0.004 µM; IC50 (RKO): 4 nM; IC50 (HepG2): 4 nM
